The record followed here is publication PMC6591251, “Discovery of potent necroptosis inhibitors targeting RIPK1 kinase activity for the treatment of inflammatory disorder and cancer metastasis” (Cell Death & Disease, 2019).

SMILES strings stand for the structures.

One experiment has as its system U937 cells. As to the kind of experiment: TNF-induced necroptosis (T/S/Z), cell viability by ATP levels. It counts as cell-based. To be noted: Homo sapiens, U-937, 24 h, T/S/Z 24 h.
Experiment [1] concerns rat bone marrow-derived macrophages. As to the kind of experiment: TNFR- and TLR-mediated necroptosis. It counts as cell-based. To be noted: rat BMDM; PK6 10 μM, PK68 100 nM; 24–30 h. The source says: (§1) In addition to TNF-induced necroptosis, it is known that TLR3 or TLR4 activation can also trigger necroptosis. We further evaluated the effects of PK6 and PK68 on TLR3- and TLR4-mediated necroptosis induced by poly(I:C)/z-VAD and LPS/z-VAD, respectively. […] To investigate the molecular mechanism of PK series-mediated necroptosis inhibition, we examined the effects of these compounds on the major steps of necroptotic signaling, including activation of RIPK1, RIPK3, and MLKL. […] It has been shown previously that RIPK3 activation leads to the formation of RIPK3 puncta during necroptosis.
(§2) Fig. 3 PK6 and PK68 block cellular activation of RIPK1, RIPK3, and MLKL upon necroptotic stimuli. a, b Bone marrow-derived macrophages from C57BL/6 mice or rat were pretreated with DMSO, PK6(10 μM), or PK68 (100 nM) for 1 h and subsequently treated with indicated stimuli for 24–30 h. Cell viability was determined by measuring ATP levels. L, LPS (20 ng/ml); P, poly(I:C) (50 μg/ml); S (100 nM); Z (10 μM). […] The distribution of RIPK3 was detected by immunofluorescence. *P < 0.05. **P < 0.01. ***P < 0.001 […]
(§3) The cell viability was analyzed by using the CellTiter-Glo Luminescent Cell Viability Assay kit following the manufacturer’s instructions (Promega). Luminescence was measured with SpectraMax i3x (Molecular Devices).

For a further experiment, the target named is T1, mouse RIPK1 (Mus musculus, UniProt Q60855).
T1 construct: purchased SignalChem
The experiment can be described thus: In vitro kinase activity assay (ADP-Glo). It counts as biochemical. To be noted: recombinant mouse RIPK1. The method, then: Having shown that PK6 and PK68 can inhibit activation of both RIPK1 and RIPK3 during TNF-mediated necroptosis, we sought to determine if PK6 and PK68 can directly target RIPK1 or and RIPK3 by performing in vitro kinase assays. Both PK6 and PK68 were able to block the kinase activities of both human RIPK1 and mouse RIPK1 in vitro (Fig. 4a and Supplementary Fig. 19).
The recombinant RIPK1 or RIPK3 protein was incubated with DMSO or the indicated compound for 15 min in the assay buffer (25 mM HEPES pH 7.2, 20 mM MgCl2, 12.5 mM MnCl2, 12.5 mM β-glycerol phosphate, 5 mM EGTA, 2 mM EDTA, and 2 mM DTT). Then, ATP (50 μM) and the substrate MBP (20 μM) were added to the reaction at room temperature for 120 min. The luminescence was measured to calculate the kinase activity after the addition of the ADP-Glo Kinase Assay kit following the manufacturer’s instructions (Promega).
Supplementary Figure 19. Both PK6 and PK68 were able to block the kinase activity of mouse RIPK1 in vitro.
In vitro kinase activity assays using recombinant mouse RIPK1 were performed. Recombinant proteins were incubated with PK6(A) and PK68(B) as indicated. Data represent mean value ±standard deviation.
Background: ADP-Glo turns the ADP formed in a reaction into a luminescent signal.

Experiment [2] deals with HT-29 cells stably expressing Flag-tagged RIPK3. The experiment can be described thus: RIPK3 puncta formation, immunofluorescence. It counts as cell-based, human. To be noted: T 100 ng/ml, S, Z 12 h.
From the text: as §1
as §2, with “μM). Data are represented as the mean ± standard deviation of triplicates. c HT-29 cells were treated with the indicated compound for 1 h prior to the treatment of T (40 ng/ml), S (100 nM), and Z (20 μM) for additional 8 h.” for “μM).”

Experiment [3] deals with mouse bone marrow-derived macrophages. As to the kind of experiment: TLR3- and TLR4-mediated necroptosis (poly(I:C)/z-VAD, LPS/z-VAD). It counts as cell-based. To be noted: mouse BMDM; PK6 10 μM, PK68 100 nM; 24–30 h.
From the text: as §1, §2, §3

T1 sequence (Q60855 whole entry): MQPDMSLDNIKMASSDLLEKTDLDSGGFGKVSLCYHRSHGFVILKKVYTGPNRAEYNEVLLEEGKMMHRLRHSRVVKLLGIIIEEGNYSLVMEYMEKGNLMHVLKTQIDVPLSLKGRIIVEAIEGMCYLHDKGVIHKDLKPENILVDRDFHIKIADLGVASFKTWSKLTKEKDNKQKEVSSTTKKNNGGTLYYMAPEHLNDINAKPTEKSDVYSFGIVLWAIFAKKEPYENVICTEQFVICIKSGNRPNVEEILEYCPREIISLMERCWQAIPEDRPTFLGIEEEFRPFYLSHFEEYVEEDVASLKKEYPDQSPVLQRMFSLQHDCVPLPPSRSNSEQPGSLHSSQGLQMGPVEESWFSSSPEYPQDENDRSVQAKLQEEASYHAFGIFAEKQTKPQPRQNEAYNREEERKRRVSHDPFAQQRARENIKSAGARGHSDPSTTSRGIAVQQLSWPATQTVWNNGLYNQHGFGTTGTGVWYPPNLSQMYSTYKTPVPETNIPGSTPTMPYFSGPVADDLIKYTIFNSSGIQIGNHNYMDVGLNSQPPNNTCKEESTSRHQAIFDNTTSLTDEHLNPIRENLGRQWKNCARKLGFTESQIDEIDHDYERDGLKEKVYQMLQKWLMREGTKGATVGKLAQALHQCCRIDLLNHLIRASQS

A word on the EC50: it is the concentration needed to bring the measured effect to its halfway point. Read a low EC50 as higher potency in that assay. Molecule `CC(=O)Nc1nc2ccc(-c3cnc(Cl)c(NC(=O)Cc4ccccc4)c3)cc2s1` [PK6, N-(5-(2-acetamidobenzo[d]thiazol-6-yl)-2-chloropyridin-3-yl)-2-phenylacetamide] returned an EC50 in the experiment on U937 cells of around 1330 nM. Besides, the “TNFR- and TLR-mediated necroptosis” value in experiment [1] was “showed inhibitory effects”. In addition, the “kinase activity of mouse RIPK1 in vitro” value at mouse RIPK1 was “able to block”. In addition, the “generation of RIPK3 puncta” value in experiment [2] is “prevented generation of RIPK3 puncta”. The “TLR3- and TLR4-mediated necroptosis” value in experiment [3] was “significantly blocked”.
With `CC(=O)Nc1nc2ccc(-c3cnc(C)c(NC(=O)OC4CCCCC4)c3)cc2s1` [PK68, cyclohexyl (5-(2-acetamidobenzo[d]thiazol-6-yl)-2-methylpyridin-3-yl)carbamate], in experiment [1], the “TNFR- and TLR-mediated necroptosis” value was “showed inhibitory effects”. The “kinase activity of mouse RIPK1 in vitro” value on mouse RIPK1 is reported as “able to block”. Also, the “generation of RIPK3 puncta” value in experiment [2] is “prevented generation of RIPK3 puncta”. Besides, in experiment [3], the “TLR3- and TLR4-mediated necroptosis” value was “significantly blocked”.
